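These data come from cells grown in 96-well plates and exposed to compound for 48 hours at five concentrations. GI50 marks 50% less growth.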 Activity calls are given as the source filed them. No stated cut-off is given here; in the data, active = GI50 up to about 1.1 µM and inactive = higher.
Legend:
Experiment in all cases: growth of human tumour cells (NCI), 48 h
SW-620 = system: SW-620
SNB-75 = system: SNB-75
A498 = system: A498
HL-60 = system: HL-60
CAKI-1 = system: CAKI-1
COLO 205 = system: COLO 205
SK-MEL-5 = system: SK-MEL-5
CCRF-CEM = system: CCRF-CEM
RPMI-8226 = system: RPMI-8226
OVCAR-4 = system: OVCAR-4
LOX IMVI = system: LOX IMVI
HCT-116 = system: HCT-116
RXF 393 = system: RXF 393
MCF7 = system: MCF7
MOLT-4 = system: MOLT-4
M14 = system: M14
HOP-62 = system: HOP-62
OVCAR-8 = system: OVCAR-8
NCI-H23 = system: NCI-H23
IGROV-1 = system: IGROV-1

Measured: GI50

O=C(O)c1ccc(NS(=O)(=O)Cc2ccccc2)cc1
inactive: SW-620 > 100 µM | SNB-75 > 100 µM | A498 > 100 µM | HL-60 > 100 µM | CAKI-1 > 100 µM | COLO 205 > 100 µM | SK-MEL-5 > 100 µM | CCRF-CEM > 100 µM | RPMI-8226 > 100 µM | OVCAR-4 > 100 µM | LOX IMVI > 100 µM | HCT-116 > 100 µM | RXF 393 > 100 µM | MCF7 > 100 µM | MOLT-4 > 100 µM | M14 > 100 µM | HOP-62 > 100 µM | OVCAR-8 > 100 µM | NCI-H23 > 100 µM | IGROV-1 > 100 µM

O=C1CC(CC(OCc2ccccc2)C(COCc2ccccc2)OCc2ccccc2)CC(=O)N1 (stereo not given)
inactive: SW-620 50.6 µM | SNB-75 52.7 µM | A498 30.3 µM | HL-60 28 µM | CAKI-1 19.7 µM | COLO 205 19.2 µM | SK-MEL-5 15.4 µM | CCRF-CEM 37.1 µM | RPMI-8226 34.5 µM | OVCAR-4 38.4 µM | LOX IMVI 34.3 µM | HCT-116 23.6 µM | RXF 393 30.1 µM | MCF7 33.1 µM | MOLT-4 24.3 µM | M14 39.4 µM | HOP-62 39.8 µM | OVCAR-8 31.9 µM | NCI-H23 43.1 µM | IGROV-1 70.5 µM

COc1ccccc1C(=O)NCC1CCCN2CCCCC12 (stereo not given)
inactive: SW-620 > 100 µM | SNB-75 > 100 µM | A498 > 100 µM | HL-60 > 100 µM | CAKI-1 > 100 µM | COLO 205 > 100 µM | SK-MEL-5 > 100 µM | CCRF-CEM > 100 µM | RPMI-8226 > 100 µM | OVCAR-4 > 100 µM | LOX IMVI > 100 µM | HCT-116 > 100 µM | RXF 393 > 100 µM | MCF7 > 100 µM | MOLT-4 > 100 µM | M14 > 100 µM | HOP-62 > 100 µM | OVCAR-8 > 100 µM | NCI-H23 > 100 µM | IGROV-1 > 100 µM

CC1C(=O)N(c2ccccc2)NC12CCCc1ccccc12 (stereo not given)
inactive: SW-620 > 100 µM | SNB-75 > 100 µM | A498 > 100 µM | HL-60 > 100 µM | CAKI-1 > 100 µM | COLO 205 > 100 µM | SK-MEL-5 > 100 µM | CCRF-CEM > 100 µM | RPMI-8226 > 100 µM | OVCAR-4 > 100 µM | LOX IMVI > 100 µM | HCT-116 > 100 µM | RXF 393 > 100 µM | MCF7 > 100 µM | MOLT-4 > 100 µM | M14 > 100 µM | HOP-62 > 100 µM | OVCAR-8 > 100 µM | NCI-H23 > 100 µM | IGROV-1 > 100 µM

CCN1CCC(O)(/C=C/c2ccc(C)cc2)C(C(=O)/C=C/c2ccc(C)cc2)C1 (stereo not given)
inactive: SW-620 1.75 µM | SNB-75 9.79 µM | A498 10.3 µM | HL-60 1.79 µM | CAKI-1 2.78 µM | COLO 205 1.75 µM | SK-MEL-5 3.43 µM | CCRF-CEM 1.73 µM | RPMI-8226 2.77 µM | OVCAR-4 9.82 µM | LOX IMVI 1.31 µM | HCT-116 1.91 µM | RXF 393 2.79 µM | MCF7 2.36 µM | MOLT-4 1.63 µM | M14 2.83 µM | HOP-62 12.5 µM | OVCAR-8 2.81 µM | NCI-H23 6.35 µM | IGROV-1 6.55 µM

COC1OC(CS(=O)(=O)O)C(O)C(O)C1O (stereo not given)
inactive: SW-620 > 100 µM | SNB-75 > 100 µM | A498 > 100 µM | HL-60 > 100 µM | CAKI-1 > 100 µM | COLO 205 > 100 µM | SK-MEL-5 > 100 µM | CCRF-CEM > 100 µM | RPMI-8226 > 100 µM | OVCAR-4 > 100 µM | LOX IMVI > 100 µM | HCT-116 > 100 µM | RXF 393 > 100 µM | MCF7 > 100 µM | MOLT-4 > 100 µM | M14 > 100 µM | HOP-62 > 100 µM | OVCAR-8 > 100 µM | NCI-H23 > 100 µM | IGROV-1 > 100 µM

From ChEMBL document CHEMBL1201862, “PubChem BioAssay data set” (2004)
